# Like-named read-outs stand apart in the source and are kept apart here.
# System: Dengue-2 (Strain New Guinea C)
# Experiment: Viral yield assay against Dengue-2 in Vero cells
# Assay type: cell-based, Dengue virus
# Details: Dengue virus
# Description: Compounds that were active in the primary screen were tested for activity in viral yield assays. […] Vero cells in 12-well plates were infected with dengue-2 virus at a multiplicity of infection (MOI) of 0.1, treated with compound (or DMSO as a control), incubated at 37° C., harvested 48 hours post infection and titered on Vero cells as described above. The EC50 was calculated through ExcelFit. Activities against other serotypes of dengue virus were determined in a similar way.
# [1] = Vero, 48 h, read-out: Activity (EC50 class) against Dengue-2 Virus in Vero cells
# [2] = Vero cells, MOI 0.1, harvested 48 hours post infection, read-out: Activity (EC50 class) against Dengue-2 Virus in Vero cells
# [3] = DENV2, viral yield assay, Vero cells, MOI 0.1, 48 hours post infection, read-out: Activity (EC50 in μM) DENV-2
# [4] = DENV2, Vero, 48 h, read-out: Activity (EC50 in μM) DENV-2
SMILES,EC50 [2] [µM],EC50 [3] [µM],further results
"COc1ccc(NC(=O)c2sc3nc(N4CCOCC4)c4c(c3c2N)CC(C)(C)OC4)cc1 [Compound 244, 1-Amino-8,8-dimethyl-5-morpholin-4-yl-8,9-dihydro-6H-7-oxa-3-thia-4-aza-cyclopenta[a]naphthalene-2-carboxylic acid (4-methoxy-phenyl)-amide]",–,–,EC50 [1]: > 25 µM
"COc1ccc(-c2cc(-c3cccs3)nc3sc(C(N)=O)c(N)c23)cc1 [Compound 238, 3-Amino-4-(4-methoxy-phenyl)-6-thiophen-2-yl-thieno[2,3-b]pyridine-2-carboxylic acid amide]",> 25,–,–
"N#Cc1cc2c(N)c(C(=O)Nc3ccc(Cl)c(Cl)c3)sc2nc1N [Compound 129, 3,6-Diamino-5-cyano-thieno[2,3-b]pyridine-2-carboxylic acid (3,4-dichloro-phenyl)-amide]",> 25,–,–
"CN1CCc2nc3sc(C(=O)Nc4ccc(C(F)(F)F)cc4)c(N)c3cc2C1 [Compound 42, 3-Amino-6-methyl-5,6,7,8-tetrahydro-thieno[2,3-b][1,6]naphthyridine-2-carboxylic acid (4-trifluoromethyl-phenyl)-amide]",< 5,–,–
"Nc1c(C(=O)Nc2ccc(S(N)(=O)=O)cc2)sc2nc3c(cc12)CCC3 [Compound 144, 3-Amino-6,7-dihydro-5H-cyclopenta[b]thieno[3,2-e]pyridine-2-carboxylic acid (4-sulfamoyl-phenyl)-amide]",> 25,–,–
"CN1CCc2nc3sc(C(=O)Nc4ccc(F)c(F)c4)c(N)c3cc2C1 [Compound 16, 3-Amino-6-methyl-5,6,7,8-tetrahydro-thieno[2,3-b][1,6]naphthyridine-2-carboxylic acid (3,4-difluoro-phenyl)-amide]",< 5,–,–
"CCOc1cccc(NC(=O)c2sc3nc(-c4cccc(OC)c4)ccc3c2N)c1 [Compound 552, 3-amino-N-(3-ethoxyphenyl)-6-(3-methoxyphenyl)thieno[2,3-b]pyridine-2-carboxamide]",–,< 5,–
"CC(=O)c1cnc2sc(C(=O)N(CCc3ccccc3)Cc3cccs3)c(C)c2c1 [Compound 390, 5-acetyl-3-methyl-N-phenethyl-N-(2-thienylmethyl)thieno[2,3-b]pyridine-2-carboxamide]",–,< 5,–
"COc1ccc(-c2ccc3c(N)c(C(=O)Nc4cccc(Cl)c4)sc3n2)cc1OC [Compound 540, 3-amino-N-(3-chlorophenyl)-6-(3,4-dimethoxyphenyl)thieno[2,3-b]pyridine-2-carboxamide]",–,< 5,–
"Nc1c(C(=O)Nc2ccc(Br)cc2)sc2nc(-c3cccnc3)ccc12 [Compound 435, 3-amino-N-(4-bromophenyl)-6-(3-pyridyl)thieno[2,3-b]pyridine-2-carboxamide]",–,< 5,–
"COCc1cc(C)nc2sc(C(=O)Nc3cccc(Cl)c3)c(N)c12 [Compound 97, 3-Amino-4-methoxymethyl-6-methyl-thieno[2,3-b]pyridine-2-carboxylic acid (3-chloro-phenyl)-amide]",5 to 25,–,–
"Cc1ccc(F)cc1NC(=O)c1sc2nc(-c3ccc(F)cc3)ccc2c1N [Compound 623, 3-amino-N-(5-fluoro-2-methyl-phenyl)-6-(4-fluorophneyl)thieno[2,3-b]pyridine-2-carboxamide]",–,< 5,–
"COc1ccc(-c2cc(-c3ccccc3)nc3sc(C(N)=O)c(N)c23)cc1 [Compound 125, 3-Amino-4-(4-methoxy-phenyl)-6-phenyl-thieno[2,3-b]pyridine-2-carboxylic acid amide]",> 25,–,–
"Cc1cc(C)c2c(N)c(C(=O)NCc3ccco3)sc2n1 [Compound 258, 3-Amino-4,6-dimethyl-thieno[2,3-b]pyridine-2-carboxylic acid (furan-2-ylmethyl)-amide]",–,–,EC50 [1]: > 25 µM
"Nc1c(C(=O)Nc2cccc(C(F)(F)F)c2)sc2nc(-c3cccs3)ccc12 [Compound 3, 3-Amino-6-thiophen-2-yl-thieno[2,3-b]pyridine-2-carboxylic acid (3-trifluoromethyl-phenyl)-amide]",< 5,–,–
"Nc1c(C(=O)Nc2ccc(S(N)(=O)=O)cc2)sc2nc3c(cc12)CCCCC3 [Compound 80, 3-Amino-6,7,8,9-tetrahydro-5H-1-thia-10-aza-cyclohepta[f]indene-2-carboxylic acid (4-sulfamoyl-phenyl)-amide]",–,–,EC50 [1]: 5 to 25 µM
"Cc1ccc(F)cc1NC(=O)c1sc2nc(-c3cccs3)ccc2c1N [Compound 463, 3-amino-N-(5-fluoro-2-methyl-phenyl)-6-(2-thienyl)thieno [2,3-b]pyridine-2-carboxamide]",–,< 5,–
"Nc1c(C(=O)Nc2ccc([N+](=O)[O-])cc2)sc2nc(-c3cccs3)cc(C(F)(F)F)c12 [Compound 221, 3-Amino-6-thiophen-2-yl-4-trifluoromethyl-thieno[2,3-b]pyridine-2-carboxylic acid (4-nitro-phenyl)-amide]",> 25,–,–

SMILES,EC50 [2] [µM],EC50 [3] [µM],further results
"CN1CCc2nc3sc(C(=O)Nc4ccc(F)cc4F)c(N)c3cc2C1 [Compound 111, 3-Amino-6-methyl-5,6,7,8-tetrahydro-thieno[2,3-b][1,6]naphthyridine-2-carboxylic acid (2,4-difluoro-phenyl)-amide]",5 to 25,–,–
"COc1ccc(NC(=O)c2sc3nc(C)cc(C)c3c2N)cc1 [Compound 163, 3-Amino-4,6-dimethyl-thieno[2,3-b]pyridine-2-carboxylic acid (4-methoxy-phenyl)-amide]",–,–,EC50 [1]: > 25 µM
"CC(=O)N1CCc2nc3sc(C(=O)Nc4ccc(C(C)(C)C)cc4)c(N)c3c(C(F)(F)F)c2C1 [Compound 56, 6-Acetyl-3-amino-4-trifluoromethyl-5,6,7,8-tetrahydro-thieno[2,3-b][1,6]naphthyridine-2-carboxylic acid (4-tert-butyl-phenyl)-amide]",< 5,–,–
"COCc1cc(C)nc2sc(C(=O)Nc3ccc(Br)c(Cl)c3)c(N)c12 [Compound 197, 3-Amino-4-methoxymethyl-6-methyl-thieno[2,3-b]pyridine-2-carboxylic acid (4-bromo-3-chloro-phenyl)-amide]",–,–,EC50 [1]: > 25 µM
"N#Cc1cc2c(N)c(C(=O)Nc3ccccc3Br)sc2nc1N [Compound 134, 3,6-Diamino-5-cyano-thieno[2,3-b]pyridine-2-carboxylic acid (2-bromo-phenyl)-amide]",–,–,EC50 [1]: > 25 µM
"CN(C)CCNc1c(C(=O)Nc2nnc(-c3ccccc3)s2)sc2nc3c(cc12)CCCCC3 [Compound 315, 3-((2-(dimethylamino)ethyl)amino)-N-(5-phenyl-1,3,4-thiadiazol-2-yl)-6,7,8,9-tetrahydro-5H-cyclohepta[b]thieno [3,2-e]pyridine-2-carboxamide]",–,–,"EC50 (DENV2, Vero cells, read-out: Activity (EC50 in μM) DENV-2): < 5 µM"
"CC(=O)Nc1nc2sc(C(=O)Nc3ccc(Br)cc3)c(N)c2c(-c2ccco2)c1C#N [Compound 324, 6-acetamido-3-amino-N-(4-bromophenyl)-5-cyano-4-(2-furyl)thieno[2,3-b]pyridine-2-carboxamide]",–,< 5,–
"Cc1cc(C(F)(F)F)c2c(N)c(C(=O)Nc3cccc4ccccc34)sc2n1 [Compound 128, 3-Amino-6-methyl-4-trifluoromethyl-thieno[2,3-b]pyridine-2-carboxylic acid naphthalen-1-ylamide]",> 25,–,–
"COc1ccccc1NC(=O)c1sc2nc(-c3ccc(C)cc3)ccc2c1N [Compound 643, 3-amino-N-(2-methoxyphenyl)-6-(p-tolyl)thieno[2,3-b]pyridine-2-carboxamide]",–,< 5,–
"COc1ccc(OC)c(NC(=O)c2sc3nc(-c4ccc(OC)c(OC)c4)ccc3c2N)c1 [Compound 518, 3-amino-N-(2,5-dimethoxyphenyl)-6-(3,4-dimethoxyphenyl)thieno[2,3-b]pyridine-2-carboxamide]",–,< 5,–
"COc1cccc(-c2ccc3c(N)c(C(=O)Nc4ccc(C)cc4C)sc3n2)c1 [Compound 554, 3-amino-N-(2,4-dimethylphenyl)-6-(3-methoxyphenyl)thieno[2,3-b]pyridine-2-carboxamide]",–,< 5,–
"Nc1c(C(=O)Nc2ccccc2)sc2nc(-c3ccccc3)cc(-c3ccccc3)c12 [Compound 66, 3-Amino-4,6-diphenyl-thieno[2,3-b]pyridine-2-carboxylic acid phenylamide]",5 to 25,–,–
"Nc1c(C(=O)Nc2ccccc2F)sc2nc3c(cc12)CCC3 [Compound 180, 3-Amino-6,7-dihydro-5H-cyclopenta[b]thieno[3,2-e]pyridine-2-carboxylic acid (2-fluoro-phenyl)-amide]",–,–,EC50 [1]: > 25 µM
"Nc1c(C(=O)Nc2ccc3c(c2)OCO3)sc2nc(-c3ccc(F)cc3)ccc12 [Compound 608, 3-amino-N-(1,3-benzodioxol-5-yl)-6-(4-fluorophenyl)thieno[2,3-b]pyridine-2-carboxamide]",–,–,EC50 [4]: < 5 µM
"Cc1ccc2c(N)c(C(=O)Nc3ccccc3C(F)(F)F)sc2n1 [Compound 418, 3-amino-6-methyl-N-[2-(trifluoromethyl)phenyl]thieno[2,3-b] pyridine-2-carboxamide]",–,–,EC50 [4]: 5 to 25 µM
"COc1cccc(-c2ccc3c(N)c(C(=O)Nc4cc(OC)ccc4OC)sc3n2)c1 [Compound 496, 3-amino-N-(2,5-dimethoxyphenyl)-6-(3-methoxyphenyl)thieno[2,3-b]pyridine-2-carboxamide]",–,< 5,–
"COc1cccc(-c2ccc3c(N)c(C(=O)Nc4cccc(Cl)c4Cl)sc3n2)c1 [Compound 563, 3-amino-N-(2,3-dichlorophenyl)-6-(3-methoxypnenyl)thieno[2,3-b]pyridine-2-carboxamide]",–,< 5,–
"COc1ccc(NC(=O)c2sc3nc4c(cc3c2N)CCCCC4)cc1 [Compound 118, 3-Amino-6,7,8,9-tetrahydro-5H-1-thia-10-aza-cyclohepta[f]indene-2-carboxylic acid (4-methoxy-phenyl)-amide]",> 25,–,–

# From US20170121344A1 (Siga Technologies, Inc., priority 2009, published 2017)
